Measurements from patent publication US20070213291A1, “Therapeutically useful synthetic oligonucleotides” (priority 1999, published 2007).

Key:
[1] = system: chimpanzee PBMCs; assay: Cytokine production by chimpanzee PBMC (ELISA); format: cell-based; conditions: PBMC of 4 healthy chimpanzees, 100 μg/ml, 48 h
Summary of the method: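 PBMCs from 4 healthy chimpanzees (1×10^6 cells) were incubated 48 h at 37 °C, 5% CO2 with 100 μg/ml of each 6-base sequence. Supernatant IL-10, IL-12 (p70 plus free p40) and TNF-alpha were measured by ELISA. Values are fold increase over untreated control cells.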

[2] = system: LNCaP human prostate cancer cells; assay: Inhibition of LNCaP cell proliferation (MTT); format: cell-based; conditions: 100 μg/ml, 48 h, 5×10^5 cells/ml
Description: (§1) Cells were seeded in 6 (1 ml/well), 24 (0.5 ml/well) or 96 (0.1 ml/well) well flat-bottom microplates and were maintained at 37° C. in a 5% CO2 atmosphere. Unless stated otherwise, 2.5×10^5 cells/ml were incubated with 0 μg/ml (control) and 100 μg/ml (treated) of 2 to 45 base sequences containing A, C, G and T for 48 h.
(§2) Cell proliferation was measured using dimethylthiazol-diphenyl-tetrazolium (MTT) reduction (Mosman et al. J. Immunol. Methods 65:55, 1983). MTT was measured at a wavelength of 570 nm using a multiplate spectrophotometer reader (ELX800, Bio-TEK Instruments Inc., Winooski, Vt.).
LNCaP prostate cancer cells are a TGF-beta 1 receptor negative, […], metastatic human solid tumor model. LNCaP cells (5×10^5 cells/ml) were incubated with 6 base GT sequences (Table 9).

[3] = system: PC-3 human prostate cancer cells; assay: Inhibition of PC-3 cell proliferation (MTT); format: cell-based; conditions: 100 μg/ml, 48 h, 5×10^5 cells/ml
Description: as §1, §2
PC-3 prostate cancer cells are a p53 mutated, androgen-independent human solid tumor model. PC-3 cells (5×10^5 cells/ml) were incubated with 3 and 6 base GT sequences (Table 8).

[4] = system: human peripheral blood mononuclear cells; assay: Cytokine production by human PBMC (ELISA); format: cell-based; conditions: PBMC of 7 healthy humans, 100 μg/ml, 48 h
Summary of the method: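 PBMC from 7 healthy donors, Ficoll-isolated; 1×10^6 cells incubated with 100 μg/ml oligonucleotide sequence for 48 h at 37 °C, 5% CO2. IL-1beta, IL-6, IL-10, IL-12 (p70 plus free p40) and TNF-alpha measured by ELISA in supernatant, expressed as fold increase over control cells.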

[5] = system: A20 murine B leukemia cells; assay: Inhibition of A20 cell proliferation (MTT); format: cell-based; conditions: 100 μg/ml, 48 h
Description: as §1, §2
A20 murine leukemia B cells are a suspension tumor model. A20 murine leukemia B cells were incubated with 6 base GT sequences (Table 19).

[6] = system: Jurkat human leukemia T cells; assay: Inhibition of Jurkat human leukemia T cell proliferation (MTT reduction); format: cell-based; conditions: 100 μg/ml sequence, 48 h, 2.5×10^5 cells/ml
Summary of the method: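 Read-out is MTT absorbance at 570 nm after 48 h. Sequences of 2 to 45 bases (A, C, G, T) tested at 100 μg/ml against untreated control, with 2.5×10^5 Jurkat cells/ml held at 37° C under 5% CO2.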

[7] = system: MCF-7 human breast cancer cells; assay: Inhibition of MCF-7 cell proliferation (MTT); format: cell-based; conditions: 100 μg/ml, 48 h, 5×10^5 cells/ml
Description: as §1, §2
MCF-7 human breast cancer cells are a caspase 3 negative, estrogen-dependent human solid tumor model. MCF-7 cells (5×10^5 cells/ml) were incubated with 3 and 6 base GT sequences (Table 7).

[8] = system: THP-1 human acute monocytic leukemia cells; assay: Inhibition of THP-1 cell proliferation (MTT); format: cell-based; conditions: 100 μg/ml, 48 h, 1.6×10^6 cells/ml
Description: as §1, §2
THP-1 acute monocytic leukemia cells are a p53 null human suspension tumor model. THP-1 cells (1.6×10^6 cells/ml) were incubated with 6 base GT sequences (Table 10).

[9] = system: THP-1 human acute monocytic leukemia cells; assay: Cytokine production by THP-1 cells (ELISA); format: cell-based; conditions: THP-1, 1×10^6 cells, 100 μg/ml, 48 h; for ↑ IL-12 (fold increase treated vs control cells): p70 complex and free p40
Summary of the method: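 Read-out is fold increase in supernatant cytokine versus control cells, measured by ELISA (IL-12 ELISA counts p70 complex plus free p40). Unless noted, sequences were tested at 100 μg/ml on 1×10^6 cells, incubated 48 h, 37° C, 5% CO2.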

[10] = system: HL-60 human promyelocytic leukemia cells; assay: Inhibition of HL-60 cell proliferation (MTT); format: cell-based; conditions: 100 μg/ml, 48 h
Description: as §1, §2
HL-60 promyelocytic leukemia cells are a p53 mutated human suspension tumor model. HL-60 cells were incubated with 6 base GT sequences (Table 6).

[11] = system: rhesus monkey PBMCs; assay: Cytokine production by rhesus monkey PBMC (ELISA); format: cell-based; conditions: PBMC of 4 healthy rhesus monkeys, 100 μg/ml, 48 h
Summary of the method: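 Peripheral blood mononuclear cells taken from 4 healthy rhesus monkeys were cultured at 1×10^6 cells with 100 μg/ml of each test sequence for 48 h at 37° C. under 5% CO2. Cytokine levels in 100 μl of supernatant were quantified in pg/ml by commercial ELISA and reported as fold increase over untreated control cells.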

[12] = system: caspase 3 and caspase 7; assay: Caspase 3 and caspase 7 activation by peptide-sequence constructs in Jurkat cells; format: cell-based, human; conditions: 72 h, present-tense example
Description: Reactive carboxylate and reactive amine groups are deprotected subsequent to conjugation,
To determine caspase activation, control and treated cells are washed, fixed, permeabilized and incubated with an FITC-conjugated antibody that recognizes the active form of the caspase (Pharmingen, San Diego, Calif.) using the conditions recommended by the manufacturer. Fluorescence associated with active caspase 3 is analyzed by flow cytometry on a FACSCALIBUR using the program CellQUEST (Becton Dickinson). Alternatively, caspase activation is determined colorimetrically using an assay based on the cleavage of a caspase-specific peptide conjugated to the color reporter molecule p-nitroanilide, which can be quantitated spectrophotometrically at a wavelength of 405 nm.
Jurkat human leukemia T cells are incubated for 72 h with NH2—YVAD-CO-GG(GT)GG, NH2-DEVD-CO-GG(GT)GG, NH2—EGD-COO-GG(GT)GG, NH2-YVAD-CO-[…], NH2-DVED-CO-[…] and NH2—IEGD-CO-[…]. Caspase 3 and caspase 7 activation are determined.

[13] = system: Jurkat human leukemia T cells; assay: NuMA release into supernatant (ELISA); format: cell-based; conditions: Jurkat, 50 μM sequence
Description: (§3) The redistribution of phosphatidylserine in the plasma membrane during apoptosis was measured by flow cytometry using FITC-conjugated annexin V (BD Pharmingen, San Diego, Calif.). NuMA release into the supernatant was determined using a commercial ELISA kit (Oncogen/Calbiochem, Cambridge, Mass.).
Jurkat human leukemia T cells were incubated with 50 μM of 3, 4, 5, 6 and 7 GT base sequences, a 5 base ACGT sequence, 6 base AG, GG, AGT and CGT sequences and a 7 base GG sequence.
Jurkat human leukemia T cells (1×10^6/ml) were incubated with 6 and 27 GT base sequences (Table 32). NuMA was determined as in Example 23.
Jurkat human cell leukemia T cells were incubated for 24 h with 6 base GT SEQ ID NO:25, complementary 6 base AC SEQ ID NO:79, and 6 base GT SEQ ID NO:25+6 base AC SEQ ID NO:79. GT SEQ ID NO:25 and AC SEQ ID NO:79 were hybridized by mixing the sequences (1:1) and heating for 10 minutes at 65° C. As controls, GT SEQ ID NO:25 and AC SEQ ID NO:79 were heated for 10 minutes at 65° C. (Table 33). Apoptosis was evaluated as in Example 23.

[14] = system: Jurkat human leukemia T cells; assay: Apoptosis by phosphatidylserine/annexin V-FITC flow cytometry; format: cell-based; conditions: 50 μM sequence
Description: as §3
Jurkat human leukemia T cells were incubated with 50 μM of 3, 4, 5, 6 and 7 GT base sequences, a 5 base ACGT sequence, 6 base AG, GG, AGT and CGT sequences and a 7 base GG sequence. […]
Jurkat human leukemia T cells were incubated with GT-rich or AC-rich sequences derived from the murA gene of Mycobacterium phlei (GenBank: Accession Number X99776). Inhibition of proliferation was measured by the reduction of MTT as in Example 3, cell cycle arrest was detected by flow cytometry using propidium iodide as in Example 21 and apoptosis was evaluated by flow cytometry using annexin-V-FITC as in Example 23.

[15] = system: D-17 canine osteosarcoma cells; assay: Inhibition of D-17 cell proliferation (MTT); format: cell-based; conditions: 100 μg/ml, 48 h, 5×10^5 cells/ml
Description: as §1, §2
(§4) D-17 canine osteosarcoma cells and CF-51 canine mammary gland cancer cells are solid tumor models. D-17 canine osteosarcoma cells (5×10^5 cells/ml) (Table 20) and CF-51 canine mammary gland cancer cells (5×10^5 cells/ml) (Table 21) were incubated with 6, 9, 17, 27 and 33 base GT-sequences and with a 15 base ACG sequence.

[16] = system: CF-51 canine mammary gland cancer cells; assay: Inhibition of CF-51 cell proliferation (MTT); format: cell-based; conditions: 100 μg/ml, 48 h, 5×10^5 cells/ml
Description: as §1, §2, §4

GGTGGG [SEQ ID NO:24]
IL-10 fold increase: mean +/− SD [1]: 2.9 +/− 1.5 fold increase
IL-12 fold increase: mean +/− SD [1]: 14.3 +/− 9.1 fold increase
TNF-alpha fold increase: mean +/− SD [1]: 11.9 +/− 7.0 fold increase
% INHIBITION of LNCaP human prostate cancer cell proliferation [2]: 17%
% INHIBITION of PC-3 human prostate cancer cell proliferation [3]: 26%
IL-1 beta fold increase: mean +/− SD [4]: 0.9 +/− 0.1 fold increase
IL-6 fold increase: mean +/− SD [4]: 15.9 +/− 14.9 fold increase
IL-10 fold increase: mean +/− SD [4]: 2.4 +/− 2.9 fold increase
IL-12 fold increase: mean +/− SD [4]: 2.3 +/− 1.6 fold increase
% INHIBITION of A20 murine B leukemia cell proliferation [5]: 9%
% INHIBITION of Jurkat human leukemia T cell proliferation [6]: 48%
% INHIBITION of MCF-7 human breast cancer cell proliferation [7]: 41%
% INHIBITION of THP-1 human acute monocytic leukemia cell proliferation [8]: 6%
↑ IL-6 (fold increase treated vs control cells) [9]: 6.9x
↑ IL-12 (fold increase treated vs control cells) [9]: 3.7x
% INHIBITION of HL-60 human promyelocytic leukemia cell proliferation [10]: 18%
IL-10 fold increase: mean +/− SD [11]: 1.0 +/− 0.1 fold increase
IL-12 fold increase: mean +/− SD [11]: 11.2 +/− 4.8 fold increase
TNF-alpha fold increase: mean +/− SD [11]: 14.5 +/− 5.4 fold increase

NH2-DEVD-CO-GG(GT)GG [NH2-DEVD-CO-GT]
processing of inactive caspase 3 and caspase 7 to active forms [12]: induce processing of inactive caspase 3 to active caspase 3 and of inactive caspase 7 to active caspase 7

NH2-DVED-CO-AACCACAAGCCCAAC [NH2-DVED-CO-ACG]
processing of inactive caspase 3 and caspase 7 to active forms [12]: do not induce processing of inactive pro-caspase 3 to active caspase 3 or of inactive caspase 7 to active caspase 7

NH2-YVAD-CO-AACCACAAGCCCAAC [NH2—YVAD-CO-ACG]
processing of inactive caspase 3 and caspase 7 to active forms [12]: do not induce processing of inactive pro-caspase 3 to active caspase 3 or of inactive caspase 7 to active caspase 7

NH2—EGD-COO-GG(GT)GG [NH2—IEGD-COO-GT]
processing of inactive caspase 3 and caspase 7 to active forms [12]: induce processing of inactive caspase 3 to active caspase 3 and of inactive caspase 7 to active caspase 7

NH2—IEGD-CO-AACCACAAGCCCAAC [NH2—IEGD-CO-ACG]
processing of inactive caspase 3 and caspase 7 to active forms [12]: do not induce processing of inactive pro-caspase 3 to active caspase 3 or of inactive caspase 7 to active caspase 7

NH2—YVAD-CO-GG(GT)GG [NH2—YVAD-CO-GT]
processing of inactive caspase 3 and caspase 7 to active forms [12]: induce processing of inactive caspase 3 to active caspase 3 and of inactive caspase 7 to active caspase 7

TGT (chemistry not given here) [SEQ ID NO:7]
% INHIBITION of PC-3 human prostate cancer cell proliferation [3]: 8%
% NuMA released (treated vs untreated cells) [13]: 35%
% INHIBITION of Jurkat human leukemia T cell proliferation [6]: 22%
% INHIBITION of MCF-7 human breast cancer cell proliferation [7]: −6%
↑ IL-6 (fold increase treated vs control cells) [9]: 2.7x
% of cells in apoptosis (positive for PS/A-V staining) [14]: 10%

TGTGTG [SEQ ID NO:9 phosphorothioate] (phosphorothioate backbone)
% INHIBITION of LNCaP human prostate cancer cell proliferation [2]: −16%
% INHIBITION of Jurkat human leukemia T cell proliferation [6]: −17%
% INHIBITION of MCF-7 human breast cancer cell proliferation [7]: 6%
↑ IL-12 (fold increase treated vs control cells) [9]: −0.1x

TGTGTGTGTGTGTGTGTG (unmodified DNA) [SEQ ID NO:17]
% INHIBITION of D-17 canine osteosarcoma cell proliferation [15]: 8%
% INHIBITION of Jurkat human leukemia T cell proliferation [6]: 56%
↑ IL-6 (fold increase treated vs control cells) [9]: 2.2x
% INHIBITION of CF-51 canine mammary gland cancer cell proliferation [16]: 8%

TTGTTT [SEQ ID NO:26 phosphorothioate]
% INHIBITION of LNCaP human prostate cancer cell proliferation [2]: −1%
% INHIBITION of Jurkat human leukemia T cell proliferation [6]: 0%
% INHIBITION of MCF-7 human breast cancer cell proliferation [7]: 6%
↑ IL-12 (fold increase treated vs control cells) [9]: −0.1x

TTTGTT [SEQ ID NO:23 phosphorothioate] (phosphorothioate backbone)
% INHIBITION of LNCaP human prostate cancer cell proliferation [2]: −11%
% INHIBITION of Jurkat human leukemia T cell proliferation [6]: 4%
% INHIBITION of MCF-7 human breast cancer cell proliferation [7]: 8%
↑ IL-12 (fold increase treated vs control cells) [9]: 0.1x
